Experimental data reported in patent publication US8642649B2, “Orally dispersible tablet” (Takeda Pharmaceutical Company Limited, priority 2011, dated 2014).
In brackets after ≈: the same amount, converted by molar mass.

Columns and labels:
[1] = randomized open-label pharmacokinetic study of oral-mucosal tablets versus oral 8 mg tablet; type: in vivo, human; details: for AUC(0-t) / Cmax: human serum, mean, N=6, measurement substance = label
Procedure: A randomized, open-label study to assess the pharmacokinetic parameters of an oral-mucosal tablet containing Compound A and its bioavailability relative to an oral 8 mg tablet containing Compound A was performed.
The test was conducted in two parts: (1) a parallel-group design to evaluate the pharmacokinetic parameters of 3 doses of Compound A (0.25, 0.5 and 1 mg) in oral-mucosal tablets and (2) an open-label, randomized 2-period crossover design to assess the relative bioavailability (pharmacokinetic profile) of the oral-mucosal 0.5 mg tablet compared with the bioavailability of the oral 8 mg tablet.
For part (1), a total of 18 subjects were randomly assigned to 1 of the 3 dosing regimens (i.e., 0.25, 0.5 and 1 mg; 6 subjects per dose) and each subject received a single dose of Compound A at the assigned dose.
For part (2), a total of 24 subjects were randomly assigned to take either the oral-mucosal 0.5 mg tablet or the oral 8 mg tablet at a single dose during each of the two periods.
To evaluate the studies, the pharmacokinetic parameters of Compound A and M-II were measured, including maximum observed serum concentration (Cmax) and area under the serum concentration-time curve from time 0 to the last quantifiable concentration (AUC(0-tlqc)).

[2] = blood kinetics of unchanged form and active metabolite M-II after oral or sublingual administration to human (cross-over, open-label); type: in vivo; details: for Cmax: serum, mean
Procedure: Oral preparation and preparation for oral-mucosal absorption were measured for blood kinetics of unchanged form and active metabolite M-II after oral or sublingual administration to human. The plasma concentration before administration, and 5 min, 10 min, 15 min, 20 min, 30 min, 45 min, 60 min, 90 min, 120 min, 180 min, 240 min, 360 min, 480 min, 600 min, 720 min and 1440 min after administration was measured.
To be specific, symbol/term and definition thereof in this table are explained in the following. The study was conducted by cross-over method under open-label condition.
AUC(0-tlqc): Area under the serum concentration-time curve from time 0 to time of the last quantifiable concentration (tlqc), calculated using the linear trapezoidal rule.
AUC(0-inf): Area under the serum concentration-time curve from time 0 to infinity, calculated as AUC(0-inf)=AUC(0-tlqc)+lqc/λz, where tlqc is the time of last quantifiable concentration and lqc is the last quantifiable concentration. λz: Terminal elimination rate constant, calculated as the negative of the slope of the log-linear regression of the natural logarithm concentration-time curve during the terminal phase. Cmax: Maximum observed serum concentration. Tmax: Time to reach Cmax. Active metaboline M-II: (2S)-2-Hydroxy-N-{2-[(8S)-1,6,7,8-tetrahydro-2H-indeno[5,4-b]furan-8-yl]ethyl}propanamide

[3] = system: patients suffering from bipolar disorder and in the remission phase; test: maintenance of remission phase in patients with bipolar disorder, double-blind randomized placebo-controlled trial; type: in vivo, human; details: oral 8 mg once daily at bedtime
Procedure: Oral 8 mg formulation containing Compound A The test tablet was administered to a group of patients suffering from bipolar disorder and in the remission phase, once daily at bedtime for 6 months. A placebo was administered once daily at bedtime to a separate control group of patients in the remission phase of bipolar disorder for 6 months. This study was performed as a double-blind, randomized, placebo-controlled trial. The time from randomization to relapse over 6 months of treatment is determined by the Primary Investigator (PI) or defined by any of the following criteria: depression [Montgomery-Asberg Depression Rating Scale (MADRS) score ≧16]; mania/hypomania [Young Mania Rating Scale (YMRS) total score ≧14]; clinical global impressions bipolar version (CGI-BP); cumulative proportion of participants in each arm (placebo or Compound A) surviving without relapse [MADRS score ≧16 and YMRS total score ≧14], a medication initiation or change for manic/depressed/mixed symptoms, a hospitalization for manic/depressed/mixed symptoms and suicide risk or imminent risk of suicide.

[4] = system: patients suffering from bipolar disorder; test: acute depression in patients with bipolar disorder, double-blind randomized placebo-controlled trial (CGI-BP); type: in vivo, human; details: oral 8 mg once daily up to 8 weeks; value below 0 favors Compound A; 95% CI; N=9; P value=0.001
solubility of compound A = type: physicochemical; details: irrespective of pH
[5] = single oral-mucosal tablet dose of Compound A 0.25 mg
[6] = single oral-mucosal tablet dose of Compound A 0.5 mg
[7] = single oral-mucosal tablet dose of Compound A 1 mg

C[C@H](O)C(=O)NCC[C@@H]1CCc2ccc3c(c21)CCO3 [M-II, (2S)-2-Hydroxy-N-{2-[(8S)-1,6,7,8-tetrahydro-2H-indeno[5,4-b]furan-8-yl]ethyl}propanamide]
AUC(0-t) [1, 5]: 4.64 ng·h/mL
Cmax [1, 5]: 1.85 ng/mL
AUC(0-t) [1, 6]: 10.5 ng·h/mL
Cmax [1, 6]: 3.74 ng/mL
AUC(0-t) [1, 7]: 20.2 ng·h/mL
Cmax [1, 7]: 7.68 ng/mL
fraction of exposure compared to the approved oral 8 mg tablet ([1]; oral-mucosal administration 0.5 mg): < 7%

CCC(=O)NCC[C@@H]1CCc2ccc3c(c21)CCO3 [compound A, (S)—N-[2-(1,6,7,8-tetrahydro-2H-indeno[5,4-b]furan-8-yl)ethyl]propionamide]
AUC(0-inf) unchanged/metabolite ratio ([2]; oral administration): 0.03
Cmax unchanged/metabolite ratio ([2]; oral administration): 0.07
Cmax ([2]; oral, dose 8 mg): 4.76 ± 5.19 ng/mL
Cmax ([2]; sublingual, dose 0.5 mg): 4.74 ng/mL
AUC(0-inf) unchanged/metabolite ratio ([2]; sublingual administration): 0.30
Cmax unchanged/metabolite ratio ([2]; sublingual administration): 1.13
Cumulative Proportion of Patients in each arm surviving without relapse ([3]; Baseline): 1.00
Cumulative Proportion of Patients in each arm surviving without relapse ([3]; Month 1): 0.929
Cumulative Proportion of Patients in each arm surviving without relapse ([3]; Month 2): 0.849
Cumulative Proportion of Patients in each arm surviving without relapse ([3]; Month 3): 0.716
Cumulative Proportion of Patients in each arm surviving without relapse ([3]; Month 4): 0.661
Cumulative Proportion of Patients in each arm surviving without relapse ([3]; Month 5): 0.632
Cumulative Proportion of Patients in each arm surviving without relapse ([3]; Month 6): 0.566
CGI-BP severity for depression, longitudinal analysis of change in outcome [4]: −0.1 (−0.16 to −0.05)
AUC(0-t) [1, 5]: 2.6 ng·h/mL
Cmax [1, 5]: 3.14 ng/mL
AUC(0-t) [1, 6]: 6.23 ng·h/mL
Cmax [1, 6]: 5.85 ng/mL
AUC(0-t) [1, 7]: 7.87 ng·h/mL
Cmax [1, 7]: 9.57 ng/mL
solubility (solubility of compound A): ~200 µg/mL (≈ 771 µM)
